Experimental data from patent publication US7915012B2, “Methods for screening for inhibitors of TRPV2 activation” (Korea University Industry and Academic Collaboration …, priority 2008, dated 2011).

Tests used:
rTRPV2 = target: T1, rTRPV2 (Rattus norvegicus, UniProt Q9WUD2, A713V/L151P/T158I); assay: Whole-cell voltage-clamp recording in TRPV2 transfected HEK293T cell line; type: cell-based
T1 construct: expressed in transfected cells; host or cells: HEK293T (ATCC CRL-11268)
T1 sequence (Q9WUD2 1-761 L151P/T158I/A713V): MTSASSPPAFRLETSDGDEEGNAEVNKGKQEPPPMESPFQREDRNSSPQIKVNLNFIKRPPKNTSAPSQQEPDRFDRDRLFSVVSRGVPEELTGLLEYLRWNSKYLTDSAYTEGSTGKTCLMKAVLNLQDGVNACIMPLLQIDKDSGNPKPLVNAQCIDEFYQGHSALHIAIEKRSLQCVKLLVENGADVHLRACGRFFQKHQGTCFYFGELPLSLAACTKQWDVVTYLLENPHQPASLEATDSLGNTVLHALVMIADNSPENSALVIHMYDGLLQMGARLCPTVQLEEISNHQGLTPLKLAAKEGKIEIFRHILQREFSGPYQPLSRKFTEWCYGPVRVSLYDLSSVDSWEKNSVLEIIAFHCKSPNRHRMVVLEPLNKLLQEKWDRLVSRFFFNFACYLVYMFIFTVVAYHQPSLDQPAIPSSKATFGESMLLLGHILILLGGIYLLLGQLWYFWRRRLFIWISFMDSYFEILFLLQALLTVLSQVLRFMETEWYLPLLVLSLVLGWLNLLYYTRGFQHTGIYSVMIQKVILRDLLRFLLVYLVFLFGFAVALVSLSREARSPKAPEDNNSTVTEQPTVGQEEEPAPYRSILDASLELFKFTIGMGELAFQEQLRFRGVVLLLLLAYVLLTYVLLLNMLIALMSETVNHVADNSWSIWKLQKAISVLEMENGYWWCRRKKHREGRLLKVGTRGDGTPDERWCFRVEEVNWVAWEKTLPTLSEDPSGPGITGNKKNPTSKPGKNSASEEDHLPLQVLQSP
Procedure: HEK293T cell line (ATCC CRL-1 1268) was transiently transfected with plasmid DNA containing polynucleotide encoding […] (SEQ. ID. NO: 1), rTRPV2 (SEQ. ID. NO: 2), mTRPV3 (SEQ. ID. NO: 3), rTRPV4 (SEQ. ID. NO: 4), mTRPM8 (SEQ. ID. NO: 5) or mTRPA1 (SEQ. ID. NO: 6).
Particularly, the HEK293T cell line was transiently transfected with individual TRP channel plasmid (pcDNA3.1 containing polynucleotide encoding rTRPV1, rTRPV2, mTRPV3, rTRPV4, mTRPM8 or mTRPA1), and 600 ng/well of pCDNA3 (Invitrogen Corp., USA; containing green fluorescent protein (GFP) cDNA) using Fugene6 (Roche Diagnostics, USA) according to manufacturer's instruction. The transformed cells were cultured in DMEM/F12 containing 10% FBS and 1% penicillin/streptomycin in a CO2 incubator for 24 hours. The cells were replated onto poly-L-lysine-coated glass coverslips, followed by further culture for 10-24 hours.
The TRPV2 transfected cell line prepared in Example 1 was treated with 100 μM probenecid (Sigma-Aldrich, USA) and 300 μM 2-APB (2-aminoethoxydiphenyl borate; Cayman Chemical, USA), respectively. Stock solutions were made using water, DMSO or ethanol, and were diluted with test solutions before use.
Whole-cell voltage-clamp recording, one of the patch-clamp techniques, was performed with the transfected cell line of Example <1-1> according to the method of Bandel M, et al. (Neuron 41:849-857, 2004).
Particularly, the extracellular solution (140 mM NaCl, 5 mM KCl, 2 mM CaCl2, 1 mM MgCl2, 10 mM HEPES; titrated to pH 7.4 with NaOH) and the pipette solution (140 mM CsCl, 5 mM EGTA, 10 mM HEPES, 2.0 mM MgATP, 0.2 mM NaGTP; titrated to pH 7.2 with CsOH) were used. The potential was held at −60 mV for 250 ms, voltage-ramp pulsed from −80 mV to +80 mV for […] and returned to −60 mV for 250 ms, which was repeated without intersweep. This experiment was repeated 5 times.
The TRPV2 transfected cell line prepared by the method of Example 1 was treated with 100 μM probenecid, 100 μM probenecid+20 μM ruthenium red (Sigma-Aldrich, USA) and 300 μM 2-APB, respectively. […]

trigeminal neurons [1] = assay: Calcium imaging of cultured trigeminal neurons; type: cell-based, ICR mice
Procedure: Trigeminal ganglia were dissected out of decapitated adult ICR mice in cold PBS and treated with 1.5 mg/ml of collagenase/dispase (Roche Diagnostics, USA) at 37° for 45 min, and then treated with 0.25% trypsin (Invitrogen, USA) for 15 min. The trigeminal neurons prepared thereby were then plated onto poly-L-lysinecoated coverslips in DMEM/F12 containing 10% FBS, 1% penicillin/streptomycin and 5 ng/ml of 2.5S NGF (Invitrogen, USA), followed by culture in a CO2 incubator for 48-72 hours.
Calcium imaging was performed with a confocal microscope (LSM5 Pascal, Carl Zeiss, Germany), and time-lapse images (excitation 488 nm/emission 514 nm) were collected every 3 seconds using Carl Zeiss ratio tool software (Carl Zeiss, Germany).
The trigeminal neurons prepared by the same manner as described in Example 2 were delayed-treated with 100 μM probenecid or 4 kinds of TRP activators: TRPM8 activator menthol 400 μM, TRPA1 activator cinnamaldehyde (MP Biomedicals, USA) 300 μM, TRPV1 activator capsaicin (Sigma-Aldrich, USA) 2 μM and TRPV1-3 activator 2-APB 300 μM.
The trigeminal neurons prepared by the same manner as described in Example 2 were treated with 300 μM 2-APB+100 μM probenecid, 300 μM 2-APB+2 μM capsaicin, 300 μM 2-APB+300 μM cinnamaldehyde+2 μM capsaicin, 300 μM 2-APB +2 μM capsaicin +100 μM probenecid, 300 μM 2-APB +400 μM menthol and 300 μM 2-APB, respectively.

trigeminal neurons [2] = assay: Whole-cell voltage-clamp recording in trigeminal neurons; type: cell-based, ICR mice; conditions: 20 μM ruthenium red + 100 μM probenecid

`NCCOB(c1ccccc1)c1ccccc1` [2-APB, 2-aminoethoxydiphenyl borate] was tested, and the “whole cell current (TRPV2 activation)” value (rTRPV2; 300 μM 2-APB) was “equal response”, the “neurons sensitive to 2-APB, share of the total neurons” value (trigeminal neurons [1]; 300 μM 2-APB) was 46.8% and the “neurons with probenecid-induced calcium influx that responded to 2-APB” value (trigeminal neurons [1]; 300 μM 2-APB, 100 μM probenecid) was 59 out of 60.
With `COc1cc(CNC(=O)CCCC/C=C/C(C)C)ccc1O` [capsaicin] the “share of probenecid-sensitive neurons that responded to capsaicin” value (trigeminal neurons [1]; 2 μM capsaicin, 100 μM probenecid) was 7.7% and the “share of the 2-APB-sensitive group that responded to capsaicin” value (trigeminal neurons [1]; 2 μM capsaicin, 300 μM 2-APB) was 40.2%.
For `N.N.N.N.N.N.N.N.N.N.N.N.N.N.[Cl-].[Cl-].[Cl-].[Cl-].[Cl-].[Cl-].[O-2].[O-2].[Ru+3].[Ru+3].[Ru+4]` [ruthenium red], the “inhibition of probenecid induced current response” value (rTRPV2; 20 μM ruthenium red + 100 μM probenecid) was “inhibited” and the “inhibition of probenecid induced currents in trigeminal neurons” value (trigeminal neurons [2]) was “inhibited”.
